In patent US4622337A, “2,2-dimethyl-3-(2-halovinyl)cyclopropane carboxlic acid ester pesticides” (priority 1972, dated 1986):

Tests used:
[1] = tested on: houseflies (Musca domestica); experiment: Relative toxicity to houseflies, topical drop on thorax; format: in vivo; settings: 5-benzyl-3-furylmethyl (1R)-trans-chrysanthemate = 1000; inverse ratio of LD50; topical, female flies
Description: (§1) The toxicity of these new esters was tested by the procedure described in detail in our above mentioned application and the following results were obtained:
(§2) The insecticidal acitivity of the esters of the invention was assessed against houseflies and mustard beetles using the following techniques:
Female flies were treated on the thorax with a one microliter drop of insecticide dissolved in acetone. Two replicates of 15 flies were used at each dose rate and 6 dose rates were used per compound under test. After treatment, the flies were maintained at a temperature of 20° C.±1° and kill was assessed 24 and 48 hours after treatment. LD50 values were calculated in micrograms of insecticide per fly and relative toxicities were calculated from the inverse ratios of the LD50 values. (see Sawicki et al, Bulletin of the World Health Organization, 35,893, (1966) and Sawicki et al, Entomologia and Exp. Appl. 10, 253, (1967)).
(§3) Relative toxicities were calculated by comparison with 5-benzyl-3-furylmethyl(1R)-trans-chrysanthemate which is one of the most toxic chrysanthemate esters known to houseflies and mustard beetles, its toxicity being about 24 times that of allethrin to houseflies and 65 times that of allethrin to mustard beetles.

[2] = tested on: mustard beetles (Phaedon cochleariae Fab); experiment: Relative toxicity to mustard beetles, topical micro drop; format: in vivo; settings: 5-benzyl-3-furylmethyl (1R)-trans-chrysanthemate = 1000; inverse ratio of LD50; topical, 48 hours
Description: as §1, §2
Acetone solutions of the test compound were applied ventrally to adult mustard beetles using a micro drop applicator. The treated insects were maintained for 48 hours after which time kill is assessed. Two replicates of 40 to 50 mustard beetles were used at each dose level and 3 to 4 dose levels were used for each compound. Again, LD50 values were calculated and relative toxicities were calculated for the inverse ratios of LD50 (see Elliott et al, J. Sci. Food Agric. 20, 561, (1969)).
as §3

CC1(C)C(C=C(Cl)Cl)C1C(=O)OCC#CCOc1ccccc1 (racemic) [Compound ME5, 4-Phenoxybut-2-ynyl(1RS)-cis,trans-3-(2,2-dichlorovinyl)-2,2-dimethylcyclopropane carboxylate]
Relative Toxicity, Houseflies [1]: 300 | Relative Toxicity, Mustard Beetles [2]: 40

CC1(C)C(C=C(Cl)Cl)C1C(=O)OC(C#N)c1coc(Cc2ccccc2)c1 (racemic) [Compound P21N, (αRS)-Cyano-5-benzyl-3-furylmethyl-(1RS)-cis-trans-3-(2,2-dichlorovinyl)-2,2-dimethyl cyclopropane carboxylate]
Relative Toxicity, Houseflies [1]: 100 | Relative Toxicity, Mustard Beetles [2]: 2000

CC1(C)C(C=C(Cl)Cl)C1C(=O)OC(C#N)c1cccc(Oc2ccccc2)c1 (racemic) [Compound P29F, (αRS)-cyano-3-phenoxybenzyl(1RS)-cis-trans-2,2-dimethyl-3-(2,2-dichlorovinyl)-cyclopropane carboxylate]
Relative Toxicity, Houseflies [1]: 1700

CC1(C)[C@H](C=C(Cl)Cl)[C@H]1C(=O)OCc1cccc(C(=O)c2ccccc2)c1 (racemic) [Compound P39B, 3-benzoylbenzyl(1RS)-trans-2,2-dimethyl-3-(2,2-dichlorovinyl)-cyclopropane carboxylate]
Relative Toxicity, Houseflies [1]: 10 | Relative Toxicity, Mustard Beetles [2]: 590

CC1(C)C(C=C(Cl)Cl)C1C(=O)OC1C=C(Cc2ccccc2)C(=O)C1 (racemic) [ME8, (±)-2-benzylcyclopentenon-4-yl(1RS)-cis,trans-3,(2,2-dichlorovinyl)-2,2-dimethylcyclopropane carboxylate]
Relative Toxicity, Houseflies [1]: 50 | Relative Toxicity, Mustard Beetles [2]: 265

CC1(C)[C@H](C=C(Cl)Cl)[C@H]1C(=O)OCc1cccc(Cc2ccccc2)c1 (relative stereo) [Compound P21I]
Relative Toxicity, Houseflies [1]: 170 | Relative Toxicity, Mustard Beetles [2]: 420

CC1(C)[C@H](C(=O)OCc2cccc(Cc3ccccc3)c2)[C@@H]1C=C(Cl)Cl (relative stereo) [Compound P21J]
Relative Toxicity, Houseflies [1]: 360 | Relative Toxicity, Mustard Beetles [2]: 350

CC1(C)[C@H](C(=O)OC(C#N)c2cccc(Oc3ccccc3)c2)[C@@H]1C=C(Cl)Cl (relative stereo) [Compound P29G, (αRS)-cyano-3-phenoxybenzyl(1RS)-cis-2,2-dimethyl-3-(2,2-dichlorovinyl)-cyclopropane carboxylate]
Relative Toxicity, Houseflies [1]: 3800 | Relative Toxicity, Mustard Beetles [2]: 2400

CC1(C)[C@H](C=C(Cl)Cl)[C@H]1C(=O)OC(C#N)c1cccc(Oc2ccccc2)c1 (relative stereo) [Compound P29H, (αRS)-cyano-3-phenoxybenzyl(1RS)-trans-2,2-dimethyl-3-(2,2-dichlorovinyl)-cyclopropane carboxylate]
Relative Toxicity, Houseflies [1]: 1800 | Relative Toxicity, Mustard Beetles [2]: 750

CC1(C)[C@H](C=C(Cl)Cl)[C@H]1C(=O)OC(C#N)c1cccc(C(=O)c2ccccc2)c1 (relative stereo) [Compound P39F, (αRS)-cyano-3-benzoylbenzyl(1RS)-trans-2,2-dimethyl-3-(2,2-dichlorovinyl)-cyclopropane carboxylate]
Relative Toxicity, Houseflies [1]: 80 | Relative Toxicity, Mustard Beetles [2]: 600

C=CC=CCC1=C(C)C(OC(=O)C2C(C=C(Cl)Cl)C2(C)C)CC1=O (single isomer, unassigned) [Compound P21M]
Relative Toxicity, Houseflies [1]: 19 | Relative Toxicity, Mustard Beetles [2]: 370

C=C/C=C\CC1=C(C)C(OC(=O)[C@@H]2[C@@H](/C=C\CC)C2(C)C)CC1=O (single isomer, unassigned) [Compound R]
Relative Toxicity, Houseflies [1]: 30 | Relative Toxicity, Mustard Beetles [2]: 300

CCCC=C[C@@H]1[C@@H](C(=O)OCc2coc(Cc3ccccc3)c2)C1(C)C [B]
Relative Toxicity, Houseflies [1]: 630 | Relative Toxicity, Mustard Beetles [2]: 890

C=CCC1=C(C)C(OC(=O)[C@@H]2[C@@H](C=C(C)C)C2(C)C)CC1=O (stereo partly shown) [Bioallethrin, reference compound]
Relative Toxicity, Houseflies [1]: 60 | Relative Toxicity, Mustard Beetles [2]: 20

CCCCC=C[C@@H]1[C@@H](C(=O)OCc2coc(Cc3ccccc3)c2)C1(C)C [Compound C]
Relative Toxicity, Houseflies [1]: 270 | Relative Toxicity, Mustard Beetles [2]: 420

CCC=C(C)C1C(C(=O)OCc2coc(Cc3ccccc3)c2)C1(C)C (stereo not shown) [Compound H]
Relative Toxicity, Houseflies [1]: < 7 | Relative Toxicity, Mustard Beetles [2]: 10

CCCC=C(C)C1C(C(=O)OCc2coc(Cc3ccccc3)c2)C1(C)C (stereo not shown) [Compound I]
Relative Toxicity, Houseflies [1]: < 7 | Relative Toxicity, Mustard Beetles [2]: < 10

CC1(C)[C@H](C(=O)OCC#CCOc2ccccc2)[C@@H]1C=C(F)F [Compound ME3, 4-Phenoxybut-2-ynyl(1R)cis-3-(2,2-difluorovinyl)-2,2-dimethylcyclopropane carboxylate]
Relative Toxicity, Houseflies [1]: 150 | Relative Toxicity, Mustard Beetles [2]: 30

CC1(C)[C@H](C=C(F)F)[C@H]1C(=O)OCC#CCOc1ccccc1 [Compound ME4, 4-Phenoxybut-2-ynyl(1R)-trans-3-(2,2-difluorovinyl)-2,2-dimethylcyclopropane carboxylate]
Relative Toxicity, Houseflies [1]: 60 | Relative Toxicity, Mustard Beetles [2]: 70

CC1(C)[C@H](C(=O)OCC#CCOc2ccccc2)[C@@H]1C=C(Br)Br [Compound ME6, 4-Phenoxybut-2-ynyl(1R)cis-3-(2,2-dibromovinyl)-2,2-dimethylcyclopropane carboxylate]
Relative Toxicity, Houseflies [1]: 390 | Relative Toxicity, Mustard Beetles [2]: 50

COC(=O)C=C[C@@H]1[C@@H](C(=O)OCc2coc(Cc3ccccc3)c2)C1(C)C [Compound P19A]
Relative Toxicity, Houseflies [1]: 91 | Relative Toxicity, Mustard Beetles [2]: 100

CCOC(=O)C=C[C@@H]1[C@@H](C(=O)OCc2coc(Cc3ccccc3)c2)C1(C)C [Compound P19B]
Relative Toxicity, Houseflies [1]: 67 | Relative Toxicity, Mustard Beetles [2]: 320

CCCOC(=O)C=C[C@@H]1[C@@H](C(=O)OCc2coc(Cc3ccccc3)c2)C1(C)C [Compound P19C]
Relative Toxicity, Houseflies [1]: 24 | Relative Toxicity, Mustard Beetles [2]: 40

CCOC(=O)C(C)=C[C@@H]1[C@@H](C(=O)OCc2coc(Cc3ccccc3)c2)C1(C)C [Compound P19D]
Relative Toxicity, Houseflies [1]: 290 | Relative Toxicity, Mustard Beetles [2]: 440

CCCOC(=O)C(C)=C[C@@H]1[C@@H](C(=O)OCc2coc(Cc3ccccc3)c2)C1(C)C [Compound P19E]
Relative Toxicity, Houseflies [1]: 290 | Relative Toxicity, Mustard Beetles [2]: 500

CCC(=C[C@@H]1[C@@H](C(=O)OCc2coc(Cc3ccccc3)c2)C1(C)C)C(=O)OC [Compound P19F]
Relative Toxicity, Houseflies [1]: 130 | Relative Toxicity, Mustard Beetles [2]: 360

CCOC(=O)C(=C[C@@H]1[C@@H](C(=O)OCc2coc(Cc3ccccc3)c2)C1(C)C)CC [Compound P19G]
Relative Toxicity, Houseflies [1]: 300 | Relative Toxicity, Mustard Beetles [2]: 500

CCCOC(=O)C(=C[C@@H]1[C@@H](C(=O)OCc2coc(Cc3ccccc3)c2)C1(C)C)CC [Compound P19H]
Relative Toxicity, Houseflies [1]: 20 | Relative Toxicity, Mustard Beetles [2]: 50

CC1(C)[C@H](C=C(Cl)Cl)[C@H]1C(=O)OCc1coc(Cc2ccccc2)c1 [Compound P21A]
Relative Toxicity, Houseflies [1]: 2500 | Relative Toxicity, Mustard Beetles [2]: 2700

CC1(C)[C@H](C=C(Br)Br)[C@H]1C(=O)OCc1coc(Cc2ccccc2)c1 [Compound P21B]
Relative Toxicity, Houseflies [1]: 1100 | Relative Toxicity, Mustard Beetles [2]: 1900

CC1(C)C(C=C(Cl)Cl)C1C(=O)OCc1cccc(Cc2ccccc2)c1 (stereo not shown) [Compound P21K]
Relative Toxicity, Houseflies [1]: 340 | Relative Toxicity, Mustard Beetles [2]: 350

COC(=O)C(Cl)=C[C@@H]1[C@@H](C(=O)OCc2coc(Cc3ccccc3)c2)C1(C)C [Compound P24A, 5-benzyl-3-furylmethyl ester of 2,2-dimethyl-3-(2-chloro-2-carbomethoxyvinyl)cyclopropane carboxylic acid]
Relative Toxicity, Houseflies [1]: 82 | Relative Toxicity, Mustard Beetles [2]: 310

CCOC(=O)C(Cl)=C[C@@H]1[C@@H](C(=O)OCc2coc(Cc3ccccc3)c2)C1(C)C [Compound P24B]
Relative Toxicity, Houseflies [1]: 150 | Relative Toxicity, Mustard Beetles [2]: 310

CCCOC(=O)C(Cl)=C[C@@H]1[C@@H](C(=O)OCc2coc(Cc3ccccc3)c2)C1(C)C [Compound P24C]
Relative Toxicity, Houseflies [1]: 53 | Relative Toxicity, Mustard Beetles [2]: 120

CCOC(=O)C(Br)=C[C@@H]1[C@@H](C(=O)OCc2coc(Cc3ccccc3)c2)C1(C)C [Compound P24D]
Relative Toxicity, Houseflies [1]: 450 | Relative Toxicity, Mustard Beetles [2]: 290

CC1(C)[C@H](C(=O)OCc2cccc(Oc3ccccc3)c2)[C@@H]1C=C(Br)Br [Compound P29A, 3-phenoxybenzyl(1R)cis-2,2-dimethyl-3-(2,2-dibromovinyl)cyclopropane carboxylate]
Relative Toxicity, Houseflies [1]: 2200 | Relative Toxicity, Mustard Beetles [2]: 1600

C=C(C)C1C(C(=O)OCc2coc(Cc3ccccc3)c2)C1(C)C (stereo not shown) [F]
Relative Toxicity, Houseflies [1]: 21

CC=C(C)C1C(C(=O)OCc2coc(Cc3ccccc3)c2)C1(C)C (stereo not shown) [G]
Relative Toxicity, Houseflies [1]: 18
